Data published in patent publication US6878690B2, “Compounds and methods” (PharmAxis Pty Ltd., priority 2000, dated 2005).

How the values were obtained:
[1] = system: myelin basic protein (MBP)-specific T lymphocyte cell lines; assay: Inhibition of T-lymphocyte migration across rat brain endothelial cell layer (Transwell, 51Cr-labelled cells); type: cell-based, Lewis rats; settings: test substance 10 mmolar in upper well; 6 hours; in comparison with the negative control (glucose 6-phosphate); triplicate
Excerpt: Vascular endothelial cells were isolated from rat brain capillaries taken from 6 to 8 week old Lewis rats according to the method of Risau et al. (Risau, W., Engelhardt, B., and Wekerle, H., (1990). Journal of Cell Biology, vol 110, p 1757-1766, which is incorporated herein by reference). Colonies of endothelial cells were purified from astroglial cells and pericytes by a Thy1.1-mediated complement lysis also after the method of Risau et al. (vide supra). The endothelial colonies, according to methods known in the art, were grown in Dulbecco's minimum essential medium (DMEM) high glucose supplemented, with 20% fetal calf serum (FCS), glutamine, pyruvate, nonessential amino acids, 4-(2-hydroxyethyl)-1-piperazine ethane sulfonic acid buffer (HEPES), kanamycin, amphotericin, heparin (all from Gibco) and 150 micrograms/ml endothelial growth supplement (Collaborative Biomedical Products). Upon reaching confluence, the endothelial cultures were washed with 0.2% EDTA in phosphate buffered saline (PBS), trypsinized (Trypsin-EDTA, 0.1% final concentration, Gibco), washed and again incubated with anti-Thy1.1 antibody for 40 minutes, washed and incubated with complement sufficient to lyse all Thy1.1+ cells (Behringwerke, AG, Marburg, Germany) at room temperature, washed and plated on matrigel-coated 6.5 mm Transwells, […] (Corning Costar Corporation, Cambridge, Mass.). The endothelial cell characteristics and confluence of the monolayer were checked by measuring the electrical resistance (World Precision Instruments, New Haven, U.S.A., model EVOM-G) and by staining with FITC-labeled phalloidin (Sigma). In order to study the effect of the agents of the present invention on T lymphocyte migration, myelin basic protein (MBP)-specific T lymphocyte cell lines were generated according to the method of Ben-Nun et al. (Ben-Nun, A., Wekerle, H. and Cohen, I. R., 1981). The rapid isolation of clonable antigen-specific T lymphocyte lines capable of mediating autoimmune encephalomyelitis. European Journal of Immunology. 1981, 11(3), 195-199; incorporated herein by reference) from the lymph nodes of Lewis rats that had been immunised with MBP in Freund's complete adjuvant. These cells were used for migration studies during the first 4 days of their propagation in IL-2 containing medium, following antigen (MBP) restimulation in the presence of antigen-presenting cells from irradiated spleen cells or thymocytes taken from normal Lewis rats. The antigen-activated T lymphocytes were radio-labelled with sodium chromate (^51Cr, 37 MBq/ml, Amersham, UK) for 30 minutes at 37° C. with occasional agitation, they were then washed three times with the DMEM culture medium and placed into the upper chamber of the Transwells at 5×10^5 cells in 100 microliters of migration medium. Test and control substance were included in the upper wells at final concentrations of 0.1, 1 and 10 mM. Cell migration was monitored by light microscopy in order to gauge progress of the experiment. […] The combined material was transferred into scintillation vials and the radioactivity of each tube determined by counting for 1 minute in a Packard Auto-Gamma 5650 (IL, USA) gamma counter. Each test and the control substance (glucose 6-phosphate) and no treatment were assessed in triplicate. […]

[2] = system: lymphocyte migration into the spleen; assay: Inhibition of lymphocyte migration into lymphoid tissue (spleen); type: in vivo, Balb/C mice; settings: intravenous dose of 5 mg of test compound together with labelled lymphocytes; spleens removed 1.5 hours after injection
Excerpt: In the present example, spleens from specific pathogen free 6-8 week old female Balb/C mice [19-21 g] were used to prepare a single cell suspension in the usual manner in mixed lymphocyte culture medium (DMEM plus glucose, folic acid, L-asparagine, sodium bicarbonate, L-glutamine, sodium pyruvate, HEPES, 2-mercaptoethanol, penicillin, streptomycin, neomycin, and 2% fetal calf serum) by pushing through a stainless steel screen. Following cell collection the red blood cells were lysed in the usual manner by treating with a solution of ammonium chloride, EDTA and sodium hydrogen carbonate (pH 7.3) and the preparation strained (Falcon 2350 cell strainer). All cell preparative steps were performed on ice.
In order to deplete the preparation of B lymphocytes, the cells were suspended in purified rat anti-mouse CD45/B220 antibody (RA3-6B2 clone; PharMingen, USA) at a concentration of 4×10^7 cells per ml and incubated on ice for 20 minutes. An equal volume of mixed lymphocyte culture medium (as above) was then added and the cells centrifuged (200× g) and resuspended at a concentration of 1×10^7 cells per ml in BioMag goat ant-rat IgG (H&L) linked to magnetic beads (Bio Mag; Perseptive Diagnostics, Polysciences Inc, USA). Following a 20 minute incubation on ice, with agitation every 5 minutes, the goat anti-rat IgG/antibody complex was removed using magnetic separation (Dynal MPC-6, Dynal, USA). The magnetic separation procedure was repeated 4 times giving a cell population containing approximately 80-90% T lymphocytes (determined by FACS analysis).
The cells were then washed in Hanks media, resuspended in 5 ml of Hanks, and radio-labelled for 30 minutes at 37° C. with sodium chromate solution (^51Cr, 34 MBq/ml, Amersham, UK). The labelled cells were washed in PBS centrifuged (200×g) and a portion were resuspended at a concentration of 3×10^7 cells/ml in either PBS (negative control), or PBS containing the test compound (25 mg/ml), and stored on ice. Balb/C mice in the negative control and treatment groups received a volume of 0.2 ml of the labelled cell preparation by a lateral tail vein injection. Negative control mice received 0.2 ml of PBS together with 6×10^6 51chromium-labelled lymphocytes, and mice from the treated groups received an intravenous dose of 5 mg of the test compound together with 6 million ^51chromium-labelled lymphocytes. […]
Spleens from the recipient mice were removed 1.5 hours after injection and the cell-associated radioactivity (CPM) determined using a gamma counter (Packard Auto-Gamma 5650. IL, USA). Results (inhibition of lymphocyte migration into the spleen) were expressed as a percentage reduction in the CPM of the spleens from treated animals compared with negative controls.

[3] = system: passively transferred adjuvant arthritis; assay: Passively transferred adjuvant induced arthritis; type: in vivo, DA rats; settings: 37 mg/kg/day, end of the two week treatment period, FIG. 2
Description: Male DA rats 8 to 10 week old were immunised with three 100 microliter injections of Complete Freund's Adjuvant (CFA) intradermally at the base of the tail. The CFA was prepared by mixing 8 mg/ml of Mycobacterium butyricum (Difco Laboratories, USA) that had been ground to a fine powder using a mortar and pestle, in 85% light mineral oil (Sigma, USA) and 15% mannide monooleate (Sigma) and emulsifying this suspension, one part in one part saline. Thus, the final emulsion contained 4 mg/ml of M. butyricum.
Ten days after immunisation the rats were euthanased and the spleens removed aseptically. A single cell suspension was prepared in the usual manner in mixed lymphocyte culture medium (MLC) (Dulbecco's Modified Eagle's Medium (DMEM) plus glucose, folic acid, L-asparagine, sodium pyruvate, HEPES, 2-mercapto ethanol, penicillin, streptomycin, neomycin and 10% fetal calf serum) by pushing the spleens through a stainless steel sieve. The cells were placed in culture in MLC medium with 2 micrograms/ml concanavalin A added such that the lymphocyte concentration was 2 million cells per milliliter. These cells were cultured aseptically at 37° C. in an atmosphere containing 5% carbon dioxide for 72 hours.
Groups of 4 or 5 DA rats, 6 to 8 weeks of age were anesthetised with diethyl ether and implanted subcutaneously on the flank with Alzet 2002 (2 week delivery) or 2001 (1 week delivery) mini-osmotic pumps (Alza Corp., Palo Alto Calif., USA). One treatment group received phosphoric acid mono-(6-propyl-3,4,5-trihydroxy-tetrahydro-pyran-2-ylmethyl) ester in the one week delivery Alzet 2001 mini-osmotic pumps. The drug was delivered at a dose of 25 mg/kg/day. The control group for this experiment received identical mini-osmotic pumps containing normal saline. In a second experiment another group of DA rats received ethyl (3,4,5-trihydroxy-6-phosphonooxymethyl-tetrahydro-pyran-2-yl)-acetic acid ester in the two week delivery Alzet 2002 mini-osmotic pumps. This drug was delivered at a dose of 37 mg/kg/day. Control animals for this group received saline delivered in identical mini-osmotic pumps. The pumps in each case were implanted subcutaneously on the flank of each animal. […]
After 5 to 8 days, a characteristic thickening and cutaneous hyperemia of the distal joints of the hind legs became clinically apparent in the saline control animals. Disease severity was evaluated and graded in each group by taking daily measurements of the mediolateral widths of both ankle joints. The data were expressed as the mean of the change (compared with width prior to cell injection) in mediolateral ankle width expressed in millimeters (±standard error of the mean).

Compound	% inhibition ± SEM [1]	Percent Inhibition (relative to negative controls) of lymphocyte migration into spleens [2]	also measured
CCCCCOC(=O)CC1OC(COP(=O)(O)O)C(O)C(O)C1O (stereo not drawn) [Pentyl (3,4,5-trihydroxy-6-phosphonooxymethyl-tetrahydro-pyran-2-yl)-acetic acid ester]	80 ± 4%		
O=P([O-])(O)OCC1OCC(O)C(O)C1O.[Na+] (stereo not drawn) [mono-(3,4,5-trihydroxy-tetrahydro-pyran-2-ylmethyl)phosphoric acid ester mono sodium salt]		68.0%	
N#CC1OC(COP(=O)([O-])[O-])C(O)C(O)C1O.[Na+].[Na+] (stereo not drawn) [6-cyano-3,4,5-trihydroxy-tetrahydro-pyran-2-ylmethyl phosphoric acid ester disodium salt]		45.0%	
O=C(O)CC1OC(COP(=O)(O)O)C(O)C(O)C1O (stereo not drawn) [(3,4,5-trihydroxy-6-phosphonooxymethyl-tetrahydro-pyran-2-yl)-acetic acid]	32 ± 2%		
O=C[C@H](O)[C@@H](O)[C@H](O)[C@H](O)COP(=O)(O)O [glucose 6-phosphate, reference compound]	0 ± 5%		
CCOC(=O)CC1OC(COP(=O)(O)O)C(O)C(O)C1O (stereo not drawn) [Ethyl (3,4,5-trihydroxy-6-phosphonooxymethyl-tetrahydro-pyran-2-yl)-acetic acid ester]	70 ± 4%		swelling in the affected joints of treated animals ([3]; two week Alzet 2002 pump subcutaneously, controls severe swelling): little swelling; disease status of the treated versus the control animals ([3]; two week Alzet 2002 pump): highly statistically significant difference
CCOC(=O)CC1OC(COP(=O)([O-])O)C(O)C(O)C1O.[Na+] (stereo not drawn) [Ethyl (3,4,5-trihydroxy-6-phosphonooxymethyl-tetrahydro-pyran-2-yl)-acetic acid ester sodium salt]		32.4%	
